Test results reported in US12570684B2 (UNIVERSITY OF TENNESSEE RESEARCH FOUNDATION, priority 2020, dated 2026).
Several values for one entry are separate records, joined by “and”; a condition that tells them apart may be missing. Identical values can stand only once. Like-named read-outs stand apart in the source and are kept apart here.

How the values were obtained:
Vero = test: MTT cytotoxicity assay; type: cell-based; conditions: for IC50: MTT, 72 h
Method: (§1) Cell lines. The human primary PDAC cell lines PANC-1 (ATCC CRL 1469); Capan-2 (ATCC HTB-80) and metastatic PDAC cell lines Capan-1 (ATCC HTB-79), AsPC-1 (ATCC CRL-1682), L1210 (ATCC CCL-219), KB (ATCC CCL-17), HeLa, SiHa (ATCC HTB-35), HCT-116 (ATCC CCL-247), DLD-1 (ATCC CCL221), hTERT-HPNE (ATCC CRL-4023), Vero (ATCC CCL-81) were purchased from the ATCC. The cell lines were cultured and maintained in the media as recommended by the supplier. The cell lines were regularly tested for mycoplasma contamination and authenticated. In addition to ATCC cell lines, Dr. Glazer's lab generated patient-derived PDAC cell line, PD002. PD002 Cells were maintained and cultured in DMEM medium supplemented with 20% FBS and 100 IU/mL penicillin and incubated at 37° C. with 5% CO2.
(§2) MTT cytotoxicity assay. To study the effect of treatment with DPAGT1 inhibitors on the growth and proliferation of cells, a fixed number of cells (5×10^4 cells/well, 196 μL) were plated in a 96 well plate. Into each well 5 μL of drug concentration was added. After 72 h of incubation with drugs at 37° C., 5% CO2, 10 μL of MTT solution (5 mg/mL in PBS) was added and incubated another 3 h at 37° C., 5% CO2. The medium was removed, and DMSO (200 μL/well) was added. Viability was assessed on the basis of cellular conversion of MTT into a purple formazan product. The absorbance of the colored formazan product was measured at 570 nm by BioTek Synergy HT Spectrophotometer.

HPNE = test: MTT cytotoxicity assay; type: cell-based; conditions: for IC50: MTT, 72 h
Method: as §1, §2

SiHa = test: MTT cytotoxicity assay; type: cell-based; conditions: 72 h
Method: as §1, §2

L1210 = test: MTT cytotoxicity assay; type: cell-based; conditions: for IC50: MTT, 72 h
Method: as §1, §2

HCT-116 = test: MTT cytotoxicity assay; type: cell-based
Method: as §1, §2

PD002 [1] = test: MTT cytotoxicity assay; type: cell-based; conditions: MTT, 72 h
Method: as §1, §2

DLD-1 = test: MTT cytotoxicity assay; type: cell-based
Method: as §1, §2

KB = test: MTT cytotoxicity assay; type: cell-based; conditions: 72 h
Method: as §1, §2

WecA (E. coli) = WecA (E. coli) (Escherichia coli, UniProt P0AC78); test: WecA assay
Method: Preparation of membrane fraction P-60 containing WecA. E. coli B21 wecA strain were harvested by centrifugation (4,700 rpm) at 4° C. followed by washing with 0.9% saline solution (thrice). The washed cell pellets were washed with homogenization buffer (containing 50 mM K2HPO4, 5 mM MgCl2, 5 mM 1,4-dithio-DL-threitol, and 10% glycerol, pH=7.2) (thrice), and approximately 5 g of pellet (wet weight) was collected. The washed cell pellets were suspended in homogenization buffer and disrupted by probe sonication on ice (5 s on and 2 s off for 1 min, then cool down for 1.5 min., 5 cycles, cool down for 15 min, and then, 5 s on and 2 s off for 1 min., cool down for 1.5 min, 5 cycles). The resulting suspension was centrifuged at 4,700×g for 15 min. at 4° C. to remove unbroken cells. The lysate was centrifuged at 25,000×g for 20 min. at 4° C. The supernatant was subjected to ultracentrifugation at 60,000×g for 1 h at 4° C. The supernatant was discarded, and the membrane fraction containing WecA enzyme (P-60) was suspended in the Tris-HCl buffer (pH=7.5). Total protein concentrations were approximately 8 to 10 mg/mL. Aliquots were stored in Eppendorf tubes at −80° C.

[2] = biological target: MraY (Hydrogenivirga sp.) (Hydrogenivirga sp. 128-5-R1-1, UniProt Z9Y2G8N0L0); test: MraY assay; type: biochemical
Method: Expression and purification of HyMraY. The gene mraY of Hydrogenivirga spp. 128-5-R1-1 was cloned with a N-terminal His6 tag into a pET22b vector. […] The proteins were purified using a nickel, cation exchange, and size exclusion chromatography.
MraY assay. MraY assay substrates, Park's nucleotide-N^ε-C6-dansylthiourea, neryl phosphate, were chemically synthesized according to the reported procedures.^7 Park's nucleotide-N^ε-C6-dansylthiourea (2 mM stock solution, 1.88 jiL), MgCl2 (0.5 M, 5 jiL), KCl (2 M, 5 jiL), Triton X-100 (0.5%, 5.63 jiL), Tris buffer (pH 8.0, 50 mM), neryl phosphate (0.1 M, 2.25 jiL), and inhibitor molecule (0-50 .ig/mL in Tris buffer) were placed in a 1.5 mL Eppendorf tube. […] (26° C.) and quenched with CHCl3 (100 jiL). […] The aqueous phase was assayed via reverse-phase HPLC.

DPAGT1 (Human) = biological target: T1, DPAGT1 (Human) (Homo sapiens, UniProt Q9H3H5); test: DPAGT1 assay; type: biochemical
T1 construct: made in house; host or cells: Expi293 cells (suspension)
T1 sequence (Q9H3H5 1-408): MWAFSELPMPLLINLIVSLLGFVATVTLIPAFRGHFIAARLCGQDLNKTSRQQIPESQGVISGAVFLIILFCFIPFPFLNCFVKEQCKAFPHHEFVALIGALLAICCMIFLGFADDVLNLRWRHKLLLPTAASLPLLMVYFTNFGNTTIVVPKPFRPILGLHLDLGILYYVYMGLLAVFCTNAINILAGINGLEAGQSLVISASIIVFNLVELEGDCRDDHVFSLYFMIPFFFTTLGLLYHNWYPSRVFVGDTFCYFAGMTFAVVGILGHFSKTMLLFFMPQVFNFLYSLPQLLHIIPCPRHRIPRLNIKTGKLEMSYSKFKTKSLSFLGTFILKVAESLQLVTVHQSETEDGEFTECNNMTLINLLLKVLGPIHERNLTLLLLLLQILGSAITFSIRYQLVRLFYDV
Method: DPAGT1 expression and purification. DPAGT1 was expressed in suspended Expi293 cells for 36 h. The cells were lysed by drawing through a 26 g needle (10 times) and membrane protein was extracted using buffer containing 1% decyl f3-D-maltopyranoside detergent. DPAGT1 was purified using HA-agarose resin and a superdex 200 size exclusion column.

PANC-1 = test: MTT cytotoxicity assay; type: cell-based, human
Method: as §1, §2

AsPC-1 = test: MTT cytotoxicity assay; type: cell-based, human
Method: as §1, §2

Capan-2 = test: MTT cytotoxicity assay; type: cell-based, human
Method: as §1, §2

AglH (M. jannaschii) = biological target: T2, AglH (M. jannaschii) (Methanocaldococcus jannaschii, UniProt Q58513); test: AglH assay
T2 sequence (Q58513 1-301): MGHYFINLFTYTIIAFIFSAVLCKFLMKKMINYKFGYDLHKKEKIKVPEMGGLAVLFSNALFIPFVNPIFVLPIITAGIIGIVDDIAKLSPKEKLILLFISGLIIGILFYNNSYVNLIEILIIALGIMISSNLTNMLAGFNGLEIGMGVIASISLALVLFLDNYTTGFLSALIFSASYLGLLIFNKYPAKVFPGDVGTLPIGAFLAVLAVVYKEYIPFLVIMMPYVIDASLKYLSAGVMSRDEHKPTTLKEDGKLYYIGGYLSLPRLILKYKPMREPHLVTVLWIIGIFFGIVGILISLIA

cell lines in Table 2 = test: MTT assays, summary over the cell lines in Table 2; type: cell-based
Method: as §1, §2

[3] = tested on: Myocobacterium tuberculosis H37Rv, Mycobacterium avium 2285, Mycobacterium smegmatis (ATCC607); test: Antimycobacterial activity (MIC); type: cell-based, Mycobacterium spp.; conditions: at 50 μg/mL
MraY = conditions: background; cited from earlier work
MraY/MurX = MraY/MurX (Mycobacterium tuberculosis, UniProt P9WMW7); conditions: background; cited from earlier work
WecA = conditions: background; cited from earlier work
mice = conditions: IP; cited from earlier work
DPAGT1 [4] = test: Immunofluorescent staining of DPAGT1 expression; type: cell-based
DPAGT1 gene = test: RT-qPCR analyses of DPAGT1 expression level; type: cell-based; conditions: PD002
PD002 [5] = test: Scratch (wound healing) assay; type: cell-based; conditions: 0.2 μM, 24 h; untreated PD002 63%
Method: Scratch Assay. A confluent monolayer was formed in 24-well plates. The monolayer was scratched by a sterile 200 μL pipette tip and washed with PBS to remove cell debris. Complete medium with CPPB (5) (0, 0.05, 0.1, 0.2 μM) were added and scratched areas were photographed with microscope. The scratched cells were incubated at 37° C., 5% CO2. After 24 h, medium was removed and cells were stained with a 1:1 mixture of crystal violet and PBS for 5 min., washed with PBS twice, and photographed with microscope. Wound areas were measured and recovered areas were calculated.

DPAGT1 [6] = conditions: background; cited from earlier work

Sequence of WecA (E. coli) (P0AC78 whole entry): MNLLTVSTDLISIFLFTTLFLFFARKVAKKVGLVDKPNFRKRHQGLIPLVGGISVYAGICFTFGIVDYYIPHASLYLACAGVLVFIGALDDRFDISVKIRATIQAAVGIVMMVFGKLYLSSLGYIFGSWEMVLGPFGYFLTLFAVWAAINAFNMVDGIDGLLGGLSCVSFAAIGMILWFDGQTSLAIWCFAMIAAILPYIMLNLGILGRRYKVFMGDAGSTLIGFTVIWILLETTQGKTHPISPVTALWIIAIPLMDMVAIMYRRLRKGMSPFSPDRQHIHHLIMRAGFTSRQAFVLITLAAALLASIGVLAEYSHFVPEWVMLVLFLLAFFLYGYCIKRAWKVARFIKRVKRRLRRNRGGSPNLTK
Sequence of MraY (Hydrogenivirga sp.) (Z9Y2G8N0L0 7-365 limits assumed): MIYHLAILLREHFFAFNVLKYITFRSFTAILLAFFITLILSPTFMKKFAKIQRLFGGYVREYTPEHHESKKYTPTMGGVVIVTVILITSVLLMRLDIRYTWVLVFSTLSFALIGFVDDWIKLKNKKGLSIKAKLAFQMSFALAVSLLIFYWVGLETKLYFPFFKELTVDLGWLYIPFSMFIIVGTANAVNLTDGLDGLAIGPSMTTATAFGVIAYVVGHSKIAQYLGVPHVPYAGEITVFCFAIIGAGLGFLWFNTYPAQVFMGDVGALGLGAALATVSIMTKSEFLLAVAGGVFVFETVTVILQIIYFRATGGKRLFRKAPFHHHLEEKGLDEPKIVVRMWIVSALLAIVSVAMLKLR
Sequence of MraY/MurX (P9WMW7 whole entry): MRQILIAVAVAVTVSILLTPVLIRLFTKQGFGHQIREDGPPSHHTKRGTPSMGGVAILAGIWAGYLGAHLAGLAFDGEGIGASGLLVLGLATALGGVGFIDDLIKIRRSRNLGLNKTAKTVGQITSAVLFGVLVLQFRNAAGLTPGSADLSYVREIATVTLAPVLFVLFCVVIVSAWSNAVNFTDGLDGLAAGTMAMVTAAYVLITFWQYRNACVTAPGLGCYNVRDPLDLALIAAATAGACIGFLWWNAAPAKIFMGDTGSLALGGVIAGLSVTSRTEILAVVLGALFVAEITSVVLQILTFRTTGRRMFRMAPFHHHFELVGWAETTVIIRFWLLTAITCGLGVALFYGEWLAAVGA

| Compound | IC50 (Vero; Chlorocebus sabaeus, Vero) | IC50 (HPNE; HPNE) | IC50 (SiHa; Homo sapiens, SiHa) | IC50 (HCT-116; Homo sapiens, HCT-116, 72 h) | IC50 (PD002 [1]; PD002) | IC50 (DLD-1; Homo sapiens, DLD-1, 72 h) | IC50 (KB; Homo sapiens, KB) | WecA inhibitory activity (in words) (WecA (E. coli)) | MraY inhibitory activity (in words) [2] | DPAGT1 inhibitory activity (in words) (DPAGT1 (Human)) | IC50 (PANC-1; Homo sapiens, PANC-1, 72 h) | IC50 (AsPC-1; Homo sapiens, ASPC1, 72 h) | IC50 (Capan-2; Homo sapiens, Capan-2, 72 h) | AglH inhibitory activity (in words) (AglH (M. jannaschii)) | IC50 [2] | IC50 (Vero) | IC50 (HPNE) | IC50 (SiHa) | IC50 (L1210) | IC50 (HCT-116; 72 h) | further results |
| --- | --- | --- | --- | --- | --- | --- | --- | --- | --- | --- | --- | --- | --- | --- | --- | --- | --- | --- | --- | --- | --- |
| CO[C@@H]1[C@H](O)[C@@H]([C@@H](O[C@H]2OC(C(=O)NCc3ccc(N4CCC(Oc5ccc(OC(F)(F)F)cc5)CC4)cc3)=C[C@H](O)[C@@H]2O)C(N)=O)O[C@H]1n1ccc(=O)[nH]c1=O | > 50 µM | > 50 µM | 25 µM | 25 µM | 50 µM | 35 µM | 35 µM | very weak | did not display MraY inhibitory activity | high nM range DPAGT1 inhibitors | 45 µM | 30 µM | 40 µM | very weak | – | – | – | – | – | – | antiproliferative activity against Vero (Vero; at 50 μM, normal kidney cell): did not show antiproliferative activity; antiproliferative activity against HPNE (HPNE; at 50 μM, normal pancreatic ductal cell): did not show antiproliferative activity; antiproliferative activity against L1210 (L1210; at 50 μM): did not show antiproliferative activity; IC50 (cell lines in Table 2; KB, SiHa, HCT-116, DLP-1, Capan-2, PANC-1, AsPC-1, PD002, MTT assays, read-out: IC50 range, growth inhibition of solid cancer cell lines): 15 to 40 µM; growth inhibitory activity against Mycobacterium spp. [3]: did not show growth inhibitory activity |
| CO[C@H]1[C@@H](O)[C@H](n2ccc(=O)[nH]c2=O)O[C@@H]1[C@@H](O[C@H]1OC(C(=O)N[C@H]2CCCCNC2=O)=C[C@H](O)[C@@H]1O)C(N)=O [Capuramycin] | > 50 µM | > 50 µM | > 50 µM | > 50 µM | > 50 µM | > 50 µM | > 50 µM | does not display inhibitory activity | selective MraY inhibitor | does not display inhibitory activity | > 50 µM | > 50 µM | > 50 µM | does not display inhibitory activity | 0.13 µM | – | – | – | – | – | IC50 (L1210; Mus musculus, L1210): > 50 µM; IC50 (WecA (E. coli)): > 50 µM; IC50 (MraY): 0.15 µM; IC50 (AglH (M. jannaschii)): > 50 µM |
| CO[C@H]1[C@@H](OC)[C@H](n2ccc(=O)[nH]c2=O)O[C@@H]1[C@@H](O[C@H]1OC(C(=O)N[C@H]2CCCCNC2=O)=C[C@H](O)[C@@H]1O)C(N)=O [O-Methyl capuramycin] | – | – | – | – | – | – | – | – | – | – | – | – | – | – | > 50 µM | > 50 µM | > 50 µM | > 50 µM | > 50 µM | > 50 µM | IC50 (PD002 [1]): > 50 µM; IC50 (DLD-1; 72 h): > 50 µM; IC50 (KB): > 50 µM; IC50 (WecA (E. coli); read-out: IC50 WecA (E. coli)): 0.06 µM; MraY/MurX inhibitory activity (in words) (MraY/MurX): does not exhibit MraY/MurX inhibitory activity; IC50 (DPAGT1 (Human)): 4.5 µM; IC50 (DPAGT1 (Human); listed as OM-CAP): 3.5 µM; IC50 (PANC-1; 72 h): > 50 µM; IC50 (AsPC-1; 72 h): > 50 µM; IC50 (Capan-2; 72 h): > 50 µM; IC50 (WecA): ~0.06 µM |
| Tunicamycin | – | – | – | – | – | – | – | – | – | – | – | – | – | – | 2.9 µM | 0.78 µM | 7.5 µM | 0.92 µM | 1.7 µM | 0.92 µM | IC50 (PD002 [1]): 1.5 µM; IC50 (DLD-1; 72 h): 1.25 µM; IC50 (KB): 2.5 µM; IC50 (WecA (E. coli); read-out: IC50 WecA (E. coli)): 0.15 µM; LD100 (mice): 3.5 mg/kg; LDs50 (mice): 2.0 mg/kg; IC50 (MraY/MurX): 3.38 µM; IC50 (DPAGT1 (Human)): 1.5 µM; DPAGT1 protein expression (DPAGT1 [4]): decreased; IC50 (PANC-1; 72 h): 1.5 µM; IC50 (AsPC-1; 72 h): 0.45 µM; IC50 (Capan-2; 72 h): 1.5 µM; DPAGT1 gene expression (DPAGT1 gene): decreased; IC50 (WecA): 0.15 µM; IC50 (AglH (M. jannaschii); read-out: IC50 AglH (M. jannaschii)): 13.2 µM; wound-healing rate (PD002 [5]): 35%; IC50 (cell lines in Table 2; all cell lines in Table 2, read-out: IC50 range, growth inhibition of all cell lines in Table 2): 0.78 to 7.5 µM and 0.45 to 7.5 µM; IC50 (DPAGT1 [6]): 2.5 µM |
